EC50 and LC50 data for two compounds are collected here from ChEMBL document CHEMBL1155621, “Asitrocin, (2,4)-cis- and trans-asitrocinones: novel bioactive mono-tetrahydrofuran acetogenins from Asimina triloba seeds” (J Nat Prod, 2000).

≈ marks a conversion by molar mass, not a printed value.

For one series, the system named is MIA PaCa-2. Description: Cytotoxicity against human MiaPaCa2 cells after 7 days by MTT assay. In kind it is functional. The note with it: MIA PaCa-2, 168 h, read-out: ED50 (the source's name). (Tetrazolium dyes change colour on reduction, which living cells bring about.)
Series [1] is described as follows: Toxicity in brine shrimp. The format is organism-based. The note with it: artemia, in vivo.
For the next series, the system named is A549. In words: Cytotoxicity against human A549 cells after 7 days by MTT assay. In kind it is functional. The conditions noted are these: A549, 168 h, read-out: ED50 (the source's name).
The next series deals with MCF7. Description: Cytotoxicity against human MCF7 cells after 7 days by MTT assay. In kind it is functional. The conditions noted are these: MCF7, 168 h, read-out: ED50 (the source's name).
Another series deals with HT-29. Description: Cytotoxicity against human HT29 cells after 7 days by MTT assay. The format is functional. The conditions noted are these: HT-29, 168 h, read-out: ED50 (the source's name).
A further series concerns A498. In words: Cytotoxicity against human A498 cells after 7 days by MTT assay. The format is functional. The conditions noted are these: A498, 168 h, read-out: ED50 (the source's name).
In the next series the test system is PC-3. Description: Cytotoxicity against human PC3 cells after 7 days by MTT assay. In kind it is functional. The conditions noted are these: PC-3, 168 h, read-out: ED50 (the source's name).

As usually defined, the LC50 is the concentration lethal to half of the exposed cells or organisms. Low readings indicate a more lethal substance, high ones a less lethal substance.

With `COc1cccc2c1C(=O)c1c(O)c3c(c(O)c1C2=O)C[C@@](O)(C(=O)CO)C[C@@H]3O[C@H]1C[C@H](N)[C@H](O)[C@H](C)O1` [DOXORUBICIN], the EC50 with MIA PaCa-2 came to 6.1 ng/mL (≈ 11.2 nM).
As for `CCCCCCCCCCCC[C@@H](O)[C@H]1CC[C@H]([C@@H](O)CC[C@H](O)CCCCCCC[C@@H](O)CC2=C[C@H](C)OC2=O)O1` [ASITROCIN], the LC50 in series [1] amounted to 63 ng/mL (≈ 106 nM). Moreover, the EC50 was found to be 118 ng/mL (≈ 198 nM) in the series with A549; 3280 ng/mL (≈ 5500 nM) in the series on MCF7; 2.99 ng/mL (≈ 5.01 nM) in the series with HT-29; 79.2 ng/mL (≈ 133 nM) in the series on A498; 1.22 ng/mL (≈ 2.04 nM) in the series on PC-3; 0.0148 ng/mL (≈ 0.0248 nM) in the series on MIA PaCa-2.
